The target of one assay is T1, Cathepsin K (Homo sapiens, UniProt P43235).
T1 sequence (P43235 115-329): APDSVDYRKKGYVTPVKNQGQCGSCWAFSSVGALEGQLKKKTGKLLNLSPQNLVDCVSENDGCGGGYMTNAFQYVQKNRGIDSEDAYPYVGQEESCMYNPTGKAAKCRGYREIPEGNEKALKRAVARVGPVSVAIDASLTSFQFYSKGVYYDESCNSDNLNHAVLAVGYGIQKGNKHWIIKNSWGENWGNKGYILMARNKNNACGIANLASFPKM
Briefly: Cathepsin K inhibition assay (fluorogenic peptide substrate); selectivity ratio vs cathepsin S. The assay is classed as biochemical. To be noted: ratio of cathepsin K inhibition constant to cathepsin S inhibition constant; Table II. An outline of the steps:
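Fluorogenic kinetic assay, started with acetyl-Lys-His-Pro-Lys-aminocarbamoylcoumarin at 40 μM final, hydrolysis followed at ex 380/em 450 nm. Apparent inhibition constants from progress curves, converted to competitive inhibition constants. Selectivity expressed as isozyme inhibition constant divided by cathepsin S inhibition constant.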

The next assay concerns the target Cathepsin S (Homo sapiens, UniProt P25774). The assay is described as follows: Cathepsin S inhibition assay (fluorogenic peptide substrate). The assay is classed as biochemical. As to conditions: Table II, compounds of Formula I; read-out: Ki Cat. S. An outline of the steps:
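Ki values come from nonlinear fitting of inhibited hydrolysis rates, taking free and total inhibitor concentrations as equal. Rates measured as rising fluorescence at 380/450 nm after reaction start with 50 μM final acetyl-HPVK-aminocarbamoylcoumarin.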

Molecules are shown by their SMILES.

Chain of Cathepsin S (P25774 115-331, species assumed): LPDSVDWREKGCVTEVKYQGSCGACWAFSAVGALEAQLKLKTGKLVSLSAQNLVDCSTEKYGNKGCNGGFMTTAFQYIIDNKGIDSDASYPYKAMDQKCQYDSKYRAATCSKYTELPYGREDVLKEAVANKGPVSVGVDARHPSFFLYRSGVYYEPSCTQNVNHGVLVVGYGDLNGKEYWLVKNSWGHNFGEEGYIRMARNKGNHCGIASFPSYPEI

For `COc1ccc(NCCNC(=O)[C@H](CC2CCCCC2)NC(=O)CNc2ccccc2)cc1` [Compound 159, (S)-3-Cyclohexyl-N-[2-(4-methoxy-phenylamino)-ethyl]-2-(2-phenylamino-acetylamino)-propionamide], the “Selectivity for Cat. S over Cat. K” value on Cathepsin K is listed as “+++ (+++, >1000)”. The Ki on Cathepsin S is less than 100 nM.

As for `COc1ccc(NCCNC(=O)[C@H](CC2CCCCC2)NC(=O)[C@H](O)c2ccccc2)cc1` [Compound 160, 3-Cyclohexyl-2-(S)-(2-(R)-hydroxy-2-phenyl-acetylamino)-N-[2-(4-methoxy-phenylamino)-ethyl]-propionamide], the “Selectivity for Cat. S over Cat. K” value at Cathepsin K is listed as “++ (++, >100)”. Also, the inhibition constant (Ki) on Cathepsin S is less than 10000 nM.

In the case of `COc1ccc(NCCNC(=O)[C@H](CC2CCCCC2)NC(=O)c2cnn(-c3ccc(F)cc3)c2C)cc1` [Compound 161, (S)-1-(4-Fluoro-phenyl)-5-methyl-1H-pyrazole-4-carboxylic acid {2-cyclohexyl-1-[2-(4-methoxy-phenylamino)-ethylcarbamoyl]-ethyl}-amide], the “Selectivity for Cat. S over Cat. K” value on Cathepsin K is given as “++ (++, >100)”. Besides, at Cathepsin S, the Ki was less than 100 nM.

As to `COc1ccc(NCCNC(=O)[C@H](CC2CCCCC2)NC(=O)c2cnn(-c3ccc(OC)cc3)c2C)cc1` [Compound 162, (S)-1-(4-Methoxy-phenyl)-5-methyl-1H-pyrazole-4-carboxylic acid {2-cyclohexyl-1-[2-(4-methoxy-phenylamino)-ethylcarbamoyl]-ethyl}-amide], the “Selectivity for Cat. S over Cat. K” value on Cathepsin K is reported as “+ (+, >10)”. Further, on Cathepsin S, the Ki is less than 100 nM.

As for `COc1ccc(NCCNC(=O)[C@H](CC2CCCCC2)NC(=O)c2cnn(-c3ccc(Cl)cc3)c2C)cc1` [Compound 163, (S)-1-(4-Chloro-phenyl)-5-methyl-1H-pyrazole-4-carboxylic acid {2-cyclohexyl-1-[2-(4-methoxy-phenylamino)-ethylcarbamoyl]-ethyl}-amide], the “Selectivity for Cat. S over Cat. K” value on Cathepsin K is “+ (+, >10)”. On Cathepsin S, the Ki is less than 100 nM.

Regarding `CC[C@H](C(=O)N[C@@H](CC1CCCCC1)C(=O)NCCNc1ccc(OC)cc1)c1ccccc1` [Compound 164, N-{2-Cyclohexyl-1-(S)-[2-(4-methoxy-phenylamino)-ethylcarbamoyl]-ethyl}-2-(S)-phenyl-butyramide], the “Selectivity for Cat. S over Cat. K” value at Cathepsin K is reported as “+++ (+++, >1000)”. The Ki at Cathepsin S was less than 100 nM.

With `COc1ccc(NCCNC(=O)[C@H](CC2CCCCC2)NC(=O)c2cc(F)cc(C(F)(F)F)c2)cc1` [Compound 165, (S)-N-{2-Cyclohexyl-1-[2-(4-methoxy-phenylamino)-ethylcarbamoyl]-ethyl}-3-fluoro-5-trifluoromethyl-benzamide], the “Selectivity for Cat. S over Cat. K” value at Cathepsin K is given as “+++ (+++, >1000)”. Also, on Cathepsin S, the Ki was less than 100 nM.

For the compound `COc1ccc(NCCNC(=O)[C@H](CC2CCCCC2)NC(=O)c2cccc(C(F)(F)F)c2F)cc1` [Compound 166, (S)-N-{2-Cyclohexyl-1-[2-(4-methoxy-phenylamino)-ethylcarbamoyl]-ethyl}-2-fluoro-3-trifluoromethyl-benzamide], at Cathepsin K, the “Selectivity for Cat. S over Cat. K” value is given as “+++ (+++, >1000)”. Besides, the Ki at Cathepsin S is less than 100 nM.

`COc1ccc(NCCNC(=O)[C@H](CC2CCCCC2)NC(=O)c2ccc(F)c(C)c2)cc1` [Compound 167, (S)-N-{2-Cyclohexyl-1-[2-(4-methoxy-phenylamino)-ethylcarbamoyl]-ethyl}-4-fluoro-3-methyl-benzamide]: the “Selectivity for Cat. S over Cat. K” value on Cathepsin K is listed as “+++ (+++, >1000)”. Further, on Cathepsin S, the Ki is less than 100 nM.

For the compound `COc1ccc(NCCNC(=O)[C@H](CC2CCCCC2)NC(=O)c2ccc(C(F)(F)F)cc2F)cc1` [Compound 169, (S)-N-{2-Cyclohexyl-1-[2-(4-methoxy-phenylamino)-ethylcarbamoyl]-ethyl}-2-fluoro-4-trifluoromethyl-benzamide], the “Selectivity for Cat. S over Cat. K” value on Cathepsin K is recorded as “++ (++, >100)”. In addition, the inhibition constant Ki on Cathepsin S is less than 1000 nM.

In the case of `COc1ccc(NCCNC(=O)[C@H](CC2CCCCC2)NC(=O)c2ccc(-c3ccc(Cl)cc3)cc2)cc1` [Compound 170, (S)-4′-Chloro-biphenyl-4-carboxylic acid {2-cyclohexyl-1-[2-(4-methoxy-phenylamino)-ethylcarbamoyl]-ethyl}-amide], the “Selectivity for Cat. S over Cat. K” value on Cathepsin K is recorded as “+ (+, >10)”. On Cathepsin S, the Ki is less than 10000 nM.

As to `COc1ccc(NCCNC(=O)[C@H](CC2CCCCC2)NC(=O)c2ccc(-c3cc(Cl)cc(Cl)c3)cc2)cc1` [Compound 171, (S)-3′, 5′-Dichloro-biphenyl-4-carboxylic acid {2-cyclohexyl-1-[2-(4-methoxy-phenylamino)-ethylcarbamoyl]-ethyl}-amide], on Cathepsin K, the “Selectivity for Cat. S over Cat. K” value is given as “+++ (+++, >1000)”. Moreover, the Ki on Cathepsin S is less than 100 nM.

In the case of `COc1ccc(NCCNC(=O)[C@H](CC2CCCCC2)NC(=O)c2ccc(-c3cccc(OC)c3)cc2)cc1` [Compound 172, (S)-3′-Methoxy-biphenyl-4-carboxylic acid {2-cyclohexyl-1-[2-(4methoxy-phenylamino)-ethylcarbamoyl]-ethyl}-amide], the “Selectivity for Cat. S over Cat. K” value on Cathepsin K was “+++ (+++, >1000)”. In addition, on Cathepsin S, the Ki was less than 100 nM.

`COc1ccc(NCCNC(=O)[C@H](CC2CCCCC2)NC(=O)c2ccc(-c3ccccc3OC)cc2)cc1` [Compound 174, (S)-2′-Methoxy-biphenyl-4-carboxylic acid {2-cyclohexyl-1-[2-(4-methoxy-phenylamino)-ethylcarbamoyl]-ethyl}-amide]: the “Selectivity for Cat. S over Cat. K” value at Cathepsin K is “+ (+, >10)”. Also, at Cathepsin S, the Ki is less than 100 nM.

`COc1ccc(NCCNC(=O)[C@H](CC2CCCCC2)NC(=O)c2cccc(-c3ccc(Cl)cc3)c2)cc1` [Compound 175, (S)-4′-Chloro-biphenyl-3-carboxylic acid {2-cyclohexyl-1-[2-(4-methoxy-phenylamino)-ethylcarbamoyl]-ethyl}-amide]: the “Selectivity for Cat. S over Cat. K” value on Cathepsin K is reported as “+++ (+++, >1000)”. Further, the Ki on Cathepsin S is less than 100 nM.

As for `COc1ccc(NCCNC(=O)[C@H](CC2CCCCC2)NC(=O)c2ccc(-c3ccc4c(c3)OCO4)cc2)cc1` [Compound 176, (S)-4-Benzo[1,3]dioxol-5-yl-N-{2-cyclohexyl-1-[2-(4phenylamino)-ethylcarbamoyl]-ethyl}-benzamide], at Cathepsin K, the “Selectivity for Cat. S over Cat. K” value was “+++ (+++, >1000)”. At Cathepsin S, the inhibition constant (Ki) was less than 100 nM.

Turning to `COc1ccc(NCCNC(=O)[C@H](CC2CCCCC2)NC(=O)c2ccc(Br)o2)cc1` [Compound 177, (S)-5-Bromo-furan-2-carboxylic acid {2-cyclohexyl-1-[2-(4-methoxy-phenylamino)-ethylcarbamoyl]-ethyl}-amide], the “Selectivity for Cat. S over Cat. K” value at Cathepsin K is “++ (++, >100)”. For the same compound, at Cathepsin S, the Ki is less than 100 nM.

Take `COc1ccc(NCCNC(=O)[C@H](CC2CCCCC2)NC(=O)c2cc(Br)cc(Br)c2)cc1` [Compound 178, (S)-3,5-Dibromo-N-{2-cyclohexyl-1-[2-(4-methoxy-phenylamino)-ethylcarbamoyl]-ethyl}-benzamide]: the “Selectivity for Cat. S over Cat. K” value on Cathepsin K was “+++ (+++, >1000)”. Besides, the inhibition constant (Ki) on Cathepsin S is less than 100 nM.

On to `COc1ccc(NCCNC(=O)[C@H](CC2CCCCC2)NC(=O)c2cc(Cl)cc(Cl)c2)cc1` [Compound 179, (S)-3,5-Dichloro-N-{2-cyclohexyl-1-[2-(4-methoxy-phenylamino)-ethylcarbamoyl]-ethyl}-benzamide], for which the “Selectivity for Cat. S over Cat. K” value on Cathepsin K was “+++ (+++, >1000)”. The Ki on Cathepsin S is less than 100 nM.

Regarding `COc1ccc(NCCNC(=O)[C@H](CC2CCCCC2)NC(=O)c2cc(OC)cc(OC)c2)cc1` [Compound 180, (S)-N-{2-Cyclohexyl-1-[2-(4-methoxy-phenylamino)-ethylcarbamoyl]-ethyl}-3,5-dimethoxy-benzamide], the “Selectivity for Cat. S over Cat. K” value on Cathepsin K is on record as “+ (+, >10)”. The Ki on Cathepsin S is less than 100 nM.

In the case of `COc1ccc(NCCNC(=O)[C@H](CC2CCCCC2)NC(=O)c2ccc(Br)s2)cc1` [Compound 182, (S)-5-Bromo-thiophene-2-carboxylic acid {2-cyclohexyl-1-[2-(4-methoxy-phenylamino)-ethylcarbamoyl]-ethyl}-amide], the “Selectivity for Cat. S over Cat. K” value on Cathepsin K is listed as “+ (+, >10)”. Moreover, the inhibitory constant (Ki) on Cathepsin S is less than 100 nM.

As for `COc1ccc(NCCNC(=O)[C@H](CC2CCCCC2)NC(=O)c2c[nH]c3ccccc23)cc1` [Compound 185, (S)-1H-Indole-3-carboxylic acid {2-cyclohexyl-1-[2-(4-methoxy-phenylamino)-ethylcarbamoyl]-ethyl}-amide], the “Selectivity for Cat. S over Cat. K” value on Cathepsin K is “++ (++, >100)”. Also, the Ki at Cathepsin S is less than 100 nM.

In the case of `COc1ccc(NCCNC(=O)[C@H](CC2CCCCC2)NC(=O)c2ccc3ncsc3c2)cc1` [Compound 186, (S)-Benzothiazole-6-carboxylic acid {2-cyclohexyl-1-[2-(4-methoxy-phenylamino)-ethylcarbamoyl]-ethyl}-amide], at Cathepsin K, the “Selectivity for Cat. S over Cat. K” value is “++ (++, >100)”. Also, on Cathepsin S, the Ki was less than 100 nM.

With `COc1ccc(NCCNC(=O)[C@H](CC2CCCCC2)NC(=O)c2ccc3nc(N)sc3c2)cc1` [Compound 187, (S)-2-Amino-benzothiazole-6-carboxylic acid {2-cyclohexyl-1-[2-(4-methoxy-phenylamino)-ethylcarbamoyl]-ethyl}-amide], on Cathepsin K, the “Selectivity for Cat. S over Cat. K” value is listed as “+ (+, >10)”. Further, the Ki at Cathepsin S is less than 100 nM.

The Ki is a dissociation constant, usually derived from enzyme kinetics or from competition with a known ligand.
